Measurements published in patent publication US12439919B2, “Active compound combinations” (priority 2019, dated 2025).

Experiments:
Alternaria solani = assay: In vivo preventive test on Alternaria test (tomatoes) (Example G1); details: 3 days after inoculation
Description: (§1) A synergistic effect of fungicides is always present when the fungicidal activity of the active compound combinations exceeds the total of the activities of the active compounds when applied individually. The expected activity for a given combination of two active compounds can be calculated as follows (cf. Colby, S. R., “Calculating Synergistic and Antagonistic Responses of Herbicide Combinations,” Weeds 1967, 15, 20-22):
(§2) If • X is the efficacy when active compound A is applied at an application rate of m ppm (or g/ha), • Y is the efficacy when active compound B is applied at an application rate of n ppm (or g/ha), • Z is the efficacy when active compound […] ppm (or g/ha), • E1 is the efficacy when the active compounds A and B are applied at application rates of m and n ppm (or g/ha), respectively, and • E2 is the efficacy when the active compounds A, B and C are applied at application rates of m, n and r ppm (or g/ha), respectively, and then
(§3) The degree of efficacy, expressed in % is denoted. 0% means an efficacy which corresponds to that of the control while an efficacy of 100% means that no disease is observed.
(§4) If the actual fungicidal activity exceeds the calculated value, then the activity of the combination is superadditive, i.e., a synergistic effect exists. In this case, the efficacy which was actually observed must be greater than the value for the expected efficacy (E) calculated from the abovementioned formula.
(§5) Solvent: 24.5 parts by weight of acetone • 24.5 parts by weight of dimethyl sulfoxide
(§6) Emulsifier: 1 part by weight of alkylaryl polyglycol ether
(§7) To produce a suitable preparation of active compound, 1 part by weight of active compound is mixed with the stated amounts of solvent and emulsifier, and the concentrate is diluted with water to the desired concentration.
(§8) To test for preventive activity, young plants are sprayed with the preparation of active compound at the stated rate of application. After the spray coating has dried on, the plants are inoculated with an aqueous spore suspension of Alternaria solani. The plants are then placed in an incubation cabinet at approximately 20° C. and a relative atmospheric humidity of 100%.
The test is evaluated 3 days after the inoculation. 0% means an efficacy which corresponds to that of the untreated control while an efficacy of 100% means that no disease is observed.

Venturia inaequalis = assay: In vivo preventive test on Venturia test (apples) (Example G2); details: 10 days after inoculation
Description: as §1, §2, §3, §4, §5, §6, §7
as §8, with “conidia” for “spore”, “the causal agent of apple scab (Venturia inaequalis) and” for “Alternaria solani. The plants are”, “remain for 1 day” for “placed”
The plants are then placed in a greenhouse at approximately 21° C. and a relative atmospheric humidity of approximately 90%.
The test is evaluated 10 days after the inoculation. 0% means an efficacy which corresponds to that of the untreated control, while an efficacy of 100% means that no disease is observed.

lentils = assay: Field trials in lentils Western Canada 2018, yield (Example H); assay type: in vivo
Method: Field trials in lentils were conducted in Western Canada in spring/summer 2018.
(§9) Fertilization and herbicide applications were carried out according to the local agricultural practice.
(§10) Fluopyram was added to Delaro in a final concentration of 50, 75 and 90 g/ha.
The following products as shown in Table 18 were sprayed using a Backpack hand boom sprayer with air induction flat fan spray nozzles applying 93.5 L/Ha spray solution at crop BBCH—growth stage 62-63.

field peas = assay: Field trials in field peas Western Canada 2018, yield (Example I); assay type: in vivo
Method: Field trials in field peas were conducted in Western Canada in spring/summer 2018.
as §9, §10
The following products as shown in Table 20 were sprayed using a Backpack hand boom sprayer with flat fan spray nozzles applying 93.5 L/ha spray solution at crop BBCH growth stage 63.

O=C(NCCc1ncc(C(F)(F)F)cc1Cl)c1ccccc1C(F)(F)F [Fluopyram, N-[2-[3-chloro-5-(trifluoromethyl)-2-pyridinyl]ethyl]-2-(trifluoromethyl)benzamide]
Efficacy % (Alternaria solani; fluopyram 0.75 ppm): 5% | Efficacy % (Alternaria solani; fluopyram 1.5 ppm): 8% | Efficacy % (Alternaria solani; fluopyram 3 ppm): 10% | Efficacy % (Venturia inaequalis; fluopyram 0.75 ppm): 0% | Efficacy % (Venturia inaequalis; fluopyram 1.5 ppm): 0% | Efficacy % (Venturia inaequalis; fluopyram 3 ppm): 5% | Yield [% of Priaxor treatment-Priaxor is 100%] (lentils; BBCH 62-63, Fluopyram 50 g/ha): 93.8 % of Priaxor treatment | Yield [% of Priaxor treatment-Priaxor is 100%] (lentils; BBCH 62-63, Fluopyram 75 g/ha): 96.3 % of Priaxor treatment | Yield [% of Priaxor treatment-Priaxor is 100%] (field peas; BBCH 63, Fluopyram 50 g/ha): 98.9 % of Priaxor treatment | Yield [% of Priaxor treatment-Priaxor is 100%] (field peas; BBCH 63, Fluopyram 75 g/ha): 99.7 % of Priaxor treatment

OC(Cc1ccccc1Cl)(Cn1nc[nH]c1=S)C1(Cl)CC1 (stereo not shown) [Prothioconazole, 2-[2-(1-chlorocyclopropyl)-3-(2-chlorophenyl)-2-hydroxypropyl]-1,2-dihydro-3H-1,2,4-triazole-3-thione]
Efficacy % (Alternaria solani; prothioconazole 1.05 ppm): 0% | Efficacy % (Alternaria solani; prothioconazole 2.1 ppm): 0% | Efficacy % (Alternaria solani; prothioconazole 4.2 ppm): 10% | Efficacy % (Venturia inaequalis; prothioconazole 1.05 ppm): 0% | Efficacy % (Venturia inaequalis; prothioconazole 2.1 ppm): 17% | Efficacy % (Venturia inaequalis; prothioconazole 4.2 ppm): 41%

CO/N=C(/C(=O)OC)c1ccccc1CO/N=C(\C)c1cccc(C(F)(F)F)c1 [Trifloxystrobin, methylalpha-(methoxyimino)-2-[[[[1-[3-(trifluoromethyl)phenyl]ethylidene]amino]oxy]methyl]-benzeneacetate]
Efficacy % (Alternaria solani; trifloxystrobin 0.9 ppm): 23% | Efficacy % (Alternaria solani; trifloxystrobin 1.8 ppm): 31% | Efficacy % (Alternaria solani; trifloxystrobin 3.6 ppm): 41% | Efficacy % (Venturia inaequalis; trifloxystrobin 0.9 ppm): 40% | Efficacy % (Venturia inaequalis; trifloxystrobin 1.8 ppm): 65% | Efficacy % (Venturia inaequalis; trifloxystrobin 3.6 ppm): 89%
